Measured values published in PubChem BioAssay AID2842 (Southern Research Institute, 2010).
In brackets after ≈: the same amount, converted by molar mass.

These compounds were tested on M. tuberculosis H37Rv growth inhibition (assay: Mycobacterium tuberculosis H37Rv growth inhibition, putative kinase inhibitor library, confirmatory dose response (AID 2842);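 further: bacteria incubated one week before Alamar blue readout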).

Going from `Cc1ccc(C)c(-c2nnc(NC(=O)c3ccccc3Cl)o2)c1` to `Cc1ccc(C)c(-c2nnc(NC(=O)c3ccc(Cl)s3)o2)c1`, the IC90 rises from 3.12 µg/mL (≈ 9.52 µM) to 26.4 µg/mL (≈ 79.2 µM) (8.5-fold).

Compared with `O=C(OCc1nc2ccccc2s1)c1ccc(F)cc1`, `OCc1cn(-c2ccccc2)nc1-c1ccc(F)cc1` is 2.4-fold lower in IC90: 15.4 µg/mL (≈ 53.5 µM) for the first, 6.38 µg/mL (≈ 23.8 µM) for the second.

`Cc1ccc2sc(NNC(=O)c3coc4ccccc4c3=O)nc2c1C` and `COc1ccc(C)c2sc(NNC(=O)c3cccc(F)c3)nc12` are within 1.5-fold of each other in IC90: 34.9 µg/mL (≈ 95.5 µM) for the first, 32.6 µg/mL (≈ 98.4 µM) for the second.

`O=C(Nc1nc(-c2ccc3c(c2)OCCO3)cs1)C1CCCCC1` and `Cc1ccc(-c2nnc(NC(=O)C3CCCCC3)o2)c(C)c1` are within 1.5-fold of each other in IC90: 11.7 µg/mL (≈ 34 µM) for the first, 8.75 µg/mL (≈ 29.2 µM) for the second.

First: CCOC(=O)c1ccc2nc(Nc3nc4cc5c(cc4s3)OCO5)sc2c1
Second: COc1ccc2nc(Nc3nc4c(s3)C(=O)CC(C)(C)C4)sc2c1
The IC90 of the first is 2.2-fold higher: 34.8 µg/mL (≈ 87.2 µM) for the first, 15.7 µg/mL (≈ 43.7 µM) for the second.

`Cc1ccccc1C(=O)Nc1nnc(-c2cccnc2)o1` and `O=C(Nc1nnc(-c2cccnc2)o1)c1ccccc1Cl` are within 1.5-fold of each other in IC90: 50.1 µg/mL (≈ 179 µM) for the first, 53.5 µg/mL (≈ 178 µM) for the second.

First: O=C(CCOc1ccccc1)Nc1nnc(-c2ccc3c(c2)CCCC3)o1
Second: O=C(Nc1nnc(-c2ccc3c(c2)CCCC3)o1)c1ccccc1F
The IC90 of the first is 19-fold higher: 18.1 µg/mL (≈ 49.8 µM) for the first, 0.93 µg/mL (≈ 2.76 µM) for the second.

Compared with `COc1ccc(-c2cc3ccccc3n2CC(O)CNCCc2ccccc2)cc1` (configuration not stated), `COc1ccc(Cn2cc3c(-c4ccccc4)nnc-3c3cc(OC)c(OC)cc32)cc1` is 1.6-fold higher in IC90: 4.11 µg/mL (≈ 10.3 µM) for the first, 6.64 µg/mL (≈ 15.6 µM) for the second.

First: Cc1ccc(C)c(-c2nnc(NC(=O)C(C)(C)C)o2)c1
Second: COc1ccc(C(=O)Nc2nnc(-c3ccc(C)cc3C)o2)cc1
The IC90 of the first is 18-fold lower: 1.32 µg/mL (≈ 4.83 µM) for the first, 23.6 µg/mL (≈ 72.9 µM) for the second.

Compared with `Cc1cc(C)c2sc(NNC(=O)c3cc(-c4cccs4)nc4ccccc34)nc2c1`, `O=C(Nc1nnc(-c2cccs2)o1)c1nc2ccccc2s1` is 8.6-fold lower in IC90: 25.6 µg/mL (≈ 59.5 µM) for the first, 2.98 µg/mL (≈ 9.07 µM) for the second.

Compared with `COC(=O)c1c(C)oc2ccc(OCC(=O)OC(C)C)cc12`, `CCOC(=O)COc1ccc(/C=C2\Oc3cc(OC)ccc3C2=O)cc1` is 2.1-fold lower in IC90: 7.05 µg/mL (≈ 23 µM) for the first, 3.32 µg/mL (≈ 9.37 µM) for the second.

Compared with `O=C(CSc1nnc(-c2ccncc2)o1)N1CCCCC1`, `Cc1ccc(-c2nnc(SCC(=O)Nc3cc(C)on3)o2)cc1` is 3.6-fold lower in IC90: 14.2 µg/mL (≈ 46.7 µM) for the first, 3.95 µg/mL (≈ 12 µM) for the second.

`COc1cccc2sc(N(CCCn3ccnc3)C(=O)Cc3ccc(F)cc3)nc12` and `CCOc1cccc2sc(N(CCCn3ccnc3)C(=O)Cc3ccc(F)cc3)nc12` are within 1.5-fold of each other in IC90: 3.48 µg/mL (≈ 8.2 µM) for the first, 4.84 µg/mL (≈ 11 µM) for the second.

Compared with `O=C(Nc1nnc(-c2cc(Cl)ccc2Cl)o1)c1cccc(Cl)c1`, `CC(=O)c1ccc(C(=O)Nc2nnc(-c3cc(Cl)ccc3Cl)o2)cc1` is 3-fold higher in IC90: 31.7 µg/mL (≈ 86.1 µM) for the first, 94.4 µg/mL (≈ 251 µM) for the second.

Going from `O=C(Cc1ccc(F)cc1)N(CCCn1ccnc1)c1nc2c(F)cccc2s1` to `COc1cccc2sc(N(CCCn3ccnc3)C(=O)c3ccc4c(c3)OCCO4)nc12`, the IC90 rises from 3.66 µg/mL (≈ 8.87 µM) to 6.56 µg/mL (≈ 14.6 µM) (1.8-fold).

`COc1ccc2c(c1)c(=O)c(C(=O)c1ccc(C)cc1)cn2Cc1cccc(C)c1` and `Cc1ccc(-c2nnc3c4cc5c(cc4n(Cc4cccc(C)c4)cc2-3)OCCO5)cc1` are within 1.5-fold of each other in IC90: 6.97 µg/mL (≈ 17.5 µM) for the first, 5.76 µg/mL (≈ 13.7 µM) for the second.

First: O=C(Nc1ccc(S(=O)(=O)N2CCC(c3nc4ccccc4[nH]3)CC2)cc1)c1cccc(Cl)c1
Second: O=C(c1ccc(Nc2nc(-c3ccccc3)c3cc(Br)ccc3n2)cc1)N1CCCC1
The IC90 of the first is 25-fold lower: 0.86 µg/mL (≈ 1.74 µM) for the first, 21.1 µg/mL (≈ 44.6 µM) for the second.

First: COc1ccc(CNC(=O)c2c(C)oc3c2C(=O)c2ccccc2C3=O)cc1
Second: Cc1oc2c(c1C(=O)NCc1cccnc1)C(=O)c1ccccc1C2=O
The IC90 of the first is 7.5-fold lower: 1.1 µg/mL (≈ 2.93 µM) for the first, 8.29 µg/mL (≈ 23.9 µM) for the second.

Compared with `COc1cccc(-c2nnc(NC(=O)c3ccc4c(c3)CCCC4)o2)c1`, `O=C(CN1C(=O)CCC1=O)Nc1nnc(-c2ccc3c(c2)CCCC3)o1` is 5-fold higher in IC90: 5.48 µg/mL (≈ 15.7 µM) for the first, 27.6 µg/mL (≈ 78 µM) for the second.

Going from `OC(CNCc1ccco1)Cn1c2ccc(Cl)cc2c2cc(Cl)ccc21` (configuration not stated) to `OCc1nc2ccccc2n1CCCCOc1ccc(Cl)cc1`, the IC90 rises from 1.71 µg/mL (≈ 4.39 µM) to 7.39 µg/mL (≈ 22.3 µM) (4.3-fold).

Going from `Cc1nnsc1C(=O)Nc1ccc([N+](=O)[O-])cc1C(F)(F)F` to `O=C(Nc1nnc(-c2ccc(Cl)s2)o1)c1cccc([N+](=O)[O-])c1`, the IC90 falls from 28.1 µg/mL (≈ 84.5 µM) to 6.09 µg/mL (≈ 17.4 µM) (4.6-fold).

Compared with `O=C(Nc1nnc(-c2ccc3c(c2)OCCO3)o1)c1ccccc1Cl`, `O=C(Nc1nnc(-c2ccc(Cl)cc2)o1)c1cc2ccccc2oc1=O` is 4-fold higher in IC90: 4.5 µg/mL (≈ 12.6 µM) for the first, 18.2 µg/mL (≈ 49.4 µM) for the second.

Compared with `CC(=O)N1CCc2c(sc(NC(=O)c3ccc(N(C)C)cc3)c2C(N)=O)C1`, `CC(C)(C)c1ccc(C(=O)Nc2nnc(-c3ccco3)o2)cc1` is 7.2-fold lower in IC90: 8.5 µg/mL (≈ 22 µM) for the first, 1.18 µg/mL (≈ 3.79 µM) for the second.

First: NC(=O)C1CCN(C2=NC(=O)/C(=C\c3ccc(Cl)cc3Cl)S2)CC1
Second: CC(C)C(=O)Nc1nnc(-c2cc(Cl)ccc2Cl)o1
The IC90 of the first is lower: under 0.2 µg/mL for the first, 26.9 µg/mL (≈ 89.5 µM) for the second.

First: N=C1SCC(=O)N1c1ncc(Cc2cccc(Cl)c2)s1
Second: N=C1SC(c2ccccc2)C(=O)N1c1nccs1 (configuration not stated)
The IC90 of the first is 14-fold lower: 2.11 µg/mL (≈ 6.52 µM) for the first, 30.1 µg/mL (≈ 109 µM) for the second.

Compared with `N#C/C(=C(\O)c1ccc2c(c1)OCCO2)c1nc2ccccc2s1`, `Cc1ccc(-c2nnc(NC(=O)c3nc4ccccc4s3)o2)c(C)c1` is 21-fold lower in IC90: 37.7 µg/mL (≈ 112 µM) for the first, 1.76 µg/mL (≈ 5.02 µM) for the second.

First: COc1ccc2nc(Nc3nc(-c4ccccn4)cs3)sc2c1
Second: Cc1ccc(C)c(-c2csc(NC(=O)c3ccc([N+](=O)[O-])s3)n2)c1
The IC90 of the first is lower: under 0.2 µg/mL for the first, 3.37 µg/mL (≈ 9.38 µM) for the second.

`COc1cc(C(=O)Nc2nnc(-c3cc(Cl)ccc3Cl)o2)cc(OC)c1OC` and `O=C(COc1ccccc1)Nc1nnc(-c2cc(Cl)ccc2Cl)o1` are within 1.5-fold of each other in IC90: 28.3 µg/mL (≈ 66.7 µM) for the first, 27.8 µg/mL (≈ 76.4 µM) for the second.

Going from `Cc1ccc(/C(O)=C2\C(=O)C(=O)N(c3ccccn3)C2c2cccc(Br)c2)cc1` (configuration not stated) to `Cc1ccc(NC(=O)CC2C(=O)Nc3ccccc3N2C(=O)c2ccc(Br)cc2)cc1C` (configuration not stated), the IC90 falls from 21.4 µg/mL (≈ 47.7 µM) to 2.24 µg/mL (≈ 4.55 µM) (9.6-fold).

`CC(C)c1ccc(OCC(=O)Nc2nccs2)cc1` and `O=C(COc1ccc(Cl)cc1)NCCSc1ncc(-c2ccc(F)cc2)[nH]1` are within 1.5-fold of each other in IC90: 6.88 µg/mL (≈ 24.9 µM) for the first, 10 µg/mL (≈ 24.6 µM) for the second.

First: O=C(Nc1nnc(C2=COCCO2)o1)c1cc(Cl)sc1Cl
Second: O=C(Nc1nnc(-c2ccc(Cl)cc2)o1)c1ccc(Br)cc1
The IC90 of the first is 10-fold higher: 34.1 µg/mL (≈ 98 µM) for the first, 3.26 µg/mL (≈ 8.61 µM) for the second.

Going from `Cc1cc(Cl)cc2sc(N(CCCn3ccnc3)C(=O)c3cccs3)nc12` to `COc1ccc(OC)c2sc(N(CCCn3ccnc3)C(=O)c3ccco3)nc12`, the IC90 rises from 1.05 µg/mL (≈ 2.52 µM) to 6.7 µg/mL (≈ 16.2 µM) (6.4-fold).

First: CCOC(=O)c1ccc(-n2cc(O)c(C(=O)OCC)n2)cc1
Second: O=C(OCn1nnc2ccccc2c1=O)c1cccs1
The IC90 of the first is 4.6-fold higher: 20 µg/mL (≈ 65.7 µM) for the first, 4.31 µg/mL (≈ 15 µM) for the second.

`Cc1cccc(Cn2c(N3CCN(Cc4ccc(Cl)cc4)CC3)nc3c2c(=O)[nH]c(=O)n3C)c1` and `COc1ccc(Nc2nc(N3CCN(Cc4ccccc4)CC3)nc3nccnc23)cc1` are within 1.5-fold of each other in IC90: 3.15 µg/mL (≈ 6.58 µM) for the first, 4.69 µg/mL (≈ 11 µM) for the second.

Going from `Cc1cccc(-c2nc(SCC(=O)Nc3ccc4c(c3)OCO4)c(-c3ccccc3)[nH]2)c1` to `Cc1ccc2[nH]c(=O)c(C3=NN(C(=O)c4ccco4)C(c4ccco4)C3)c(-c3ccccc3)c2c1` (configuration not stated), the IC90 rises from 9.98 µg/mL (≈ 22.5 µM) to 15.4 µg/mL (≈ 33.3 µM) (1.5-fold).

First: CSc1nnc(C)c(=O)n1COC(=O)/C=C/c1ccc2c(c1)OCO2
Second: COc1cc(/C=C(\C#N)c2nc(-c3ccc4c(c3)OCO4)cs2)cc([N+](=O)[O-])c1O
The IC90 of the first is 3.4-fold lower: 11.2 µg/mL (≈ 31 µM) for the first, 37.7 µg/mL (≈ 89.2 µM) for the second.

Compared with `CCCCc1ccc2[nH]cc(C(=O)O)c(=O)c2c1`, `CCCCOc1ccc(C(=O)Nc2nnc(-c3ccco3)o2)cc1` is 18-fold lower in IC90: 14.5 µg/mL (≈ 59 µM) for the first, 0.8 µg/mL (≈ 2.44 µM) for the second.

Going from `O=C(CCN1C(=O)c2ccccc2S1(=O)=O)Nc1ccc(Br)cc1` to `O=C(CCCN1C(=O)/C(=C\c2ccco2)SC1=S)Nc1ccccn1`, the IC90 falls from 17.5 µg/mL (≈ 42.9 µM) to 4.87 µg/mL (≈ 13 µM) (3.6-fold).

First: COc1cccc(/C=N/Nc2nc(=O)[nH]nc2C)c1O
Second: Cc1ccc2c(c1)=C(c1sc(=O)[nH]c1O)C(=O)N=2
The IC90 of the first is 46-fold lower: 0.5 µg/mL (≈ 1.82 µM) for the first, 22.8 µg/mL (≈ 87.7 µM) for the second.

Compared with `COC(=O)C(C)Oc1ccc2cc(-c3ccc(OC)cc3)c(=O)oc2c1` (configuration not stated), `Cc1ccc(Cn2cc3c(-c4ccc(C)c(C)c4)nnc-3c3cc4c(cc32)OCCO4)cc1` is 11-fold higher in IC90: 1.07 µg/mL (≈ 3.02 µM) for the first, 11.5 µg/mL (≈ 26.5 µM) for the second.

`Cc1ccc(Nc2nc(Nc3cccc(F)c3)nc(N3CCOCC3)n2)cc1C` and `O=[N+]([O-])c1cccc(-c2ccc(/C=N/O)o2)c1` are within 1.5-fold of each other in IC90: 13.5 µg/mL (≈ 34.2 µM) for the first, 11.9 µg/mL (≈ 51.1 µM) for the second.
